# Results published in PubChem BioAssay (NCI).
# “And” between values parts separate entries of the source, which are not always exact repeats. Equal entries are not always repeated.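 Tested at 5 concentrations; 48 h exposure; 96-well plates; endpoints linearly interpolated, else capped at highest concentration. GI50 = concentration required for 50% inhibition of growth. The concentration for full growth arrest is given as TGI.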
# Legend:
# Experiment in all cases: growth of human tumour cells (NCI), 48 h
# [1] = tested on: MDA-MB-435
# [2] = tested on: LOX IMVI melanoma
# [3] = tested on: A549 NSCLC
# [4] = tested on: NCI-H460 lung
# [5] = tested on: NCI-H226 lung
# [6] = tested on: SW-620 colon
# [7] = tested on: SK-MEL-5 melanoma
# [8] = tested on: MALME-3M melanoma
# [9] = tested on: OVCAR-4 ovarian
# [10] = tested on: SK-MEL-2 melanoma
SMILES,TGI [1],TGI [2],TGI [3] [µM],TGI [4] [µM],TGI [5] [µM],TGI [6],TGI [7],TGI [8],TGI [9] [µM],TGI [10] [µM],GI50 [1],GI50 [2] [nM],GI50 [4] [nM],GI50 [5] [nM],GI50 [6],GI50 [8],GI50 [9],GI50 [10] [nM],GI50 [3] [µM],GI50 [7] [nM]
CN(C)c1nc(N)c(C#N)c(C#N)c1C#N,> 10 µM,> 10 µM,> 10,> 10,> 10,> 10 µM,> 10 µM,> 10 µM,> 10,> 10,–,–,–,–,–,–,–,–,–,–
CC1(C)[C@H](O)[C@H](F)C[C@@]2(C)Oc3ccc(C(=O)Nc4ccc5c(c4)NC(=O)C54CCN(CCCCC#N)CC4)cc3C[C@H]12,1.83 µM and 2.94 µM,2.82 µM and 2.17 µM,8.4,10.9,17.4,2.52 µM and 2.68 µM,2.9 µM and 1.55 µM,3.1 µM and 3.43 µM,20.4,2.44,90 nM and 94.6 nM,39.6,65.3,2910,94.3 nM and 40.5 nM,332 nM and 1040 nM,4.31 µM and 6.31 µM,1140,–,–
Nc1nc(-c2ccc(Cl)cc2)nc2c1sc(=S)n2-c1ccccc1,> 100 µM,4.91 µM,25.4,10.2,6.73,82.9 µM,10.1 µM,5.67 µM,4.57,41.2,6650 nM,2070,3310,2780,6450 nM,2590 nM,1.95 µM,10700,3.67,2910
Cc1ccc(Cl)cc1-n1c(C)nc2c(cnn2-c2ccnc3c(C(F)(F)F)cccc23)c1=O,> 100 µM,> 100 µM,> 100,> 100,> 100,> 100 µM,> 100 µM,> 100 µM,> 100,> 100,> 100000 nM,> 100000,> 100000,> 100000,> 100000 nM,> 100000 nM,> 100 µM,> 100000,> 100,> 100000
COc1cc(-c2ncn(/C=C\c3nnco3)n2)cc(C(F)(F)F)c1,3.33 µM,2.02 µM,> 68,> 100,4.3,31.7 µM,4.39 µM,> 100 µM,> 72.4,1.15,89.4 nM,90.6,43.1,31.2,66.3 nM,464 nM,0.211 µM,61.7,0.109,411
C=CCN(CC=C)C(=O)[C@H](CC)[C@@H]1CC[C@@H](C)[C@@H]([C@H](C)[C@@H](O)[C@@H](C)C(=O)[C@H](CC)C2O[C@]3(C=C[C@@H](O)[C@]4(CC[C@@](C)([C@H]5CC[C@](O)(CC)[C@H](C)O5)O4)O3)[C@H](C)C[C@@H]2C)O1 (stereo partly drawn),8.5 µM,3.22 µM,> 100,4.35,4.92,10.6 µM,3.15 µM,3.6 µM,10.1,7.47,2710 nM,1520,1970,1860,2970 nM,1760 nM,2.63 µM,2620,3.37,1720
COCCOCCOCCOCCOC(=O)OC[n+]1ccc(NC(=NCCCCCCOc2ccc(Cl)cc2)NC#N)cc1,14.7 µM,20.6 µM,19.2,19.2,30.4,16.3 µM,11.6 µM,29.5 µM,19.9,27.3,< 10 nM,2570,124,12700,< 10 nM,12100 nM,6.47 µM,11400,2.22,1430
